According to ChEMBL document CHEMBL5500360, “Discovery of N-(4-((6-(3,5- Dimethoxyphenyl)-9H-purine derivatives as irreversible covalent FGFR inhibitors” (Eur J Med Chem, 2024):
The source made the active and inactive calls. The calls are words filed in the database; no cut-off is given here.

Key:
[1] = Metabolic stability in human liver microsomes assessed as intrinsic clearance at 1 uM incubated for 45 mins by LC-MS/MS analysis; assay type: ADME, Microsome; settings: read-out: CLH
MDA-MB-231 [2] = test: Induction of apoptosis in human MDA-MB-231 cells assessed as viable cells at 5 uM incubated for 24 hrs by Annexin V-FITC/PI staining based flow cytometric analysis (reference value: 99.645%); assay type: functional; settings: read-out: Activity
MDA-MB-231 [3] = test: Effect on FGFR1 protein expression in human MDA-MB-231 cells at 5 to 10 uM incubated for 24 hrs by Western blot analysis; assay type: functional, cell-based; settings: dose 5-10 µM
[4] = Metabolic stability in rat liver microsomes assessed as parent compound remaining at 1 uM measured after 30 mins by LC-MS/MS analysis; assay type: ADME, Microsome; settings: read-out: Stability
MDA-MB-231 [5] = test: Cell cycle arrest in human MDA-MB-231 cells assessed as accumulation of S phase cells at 2.5 uM incubated for 24 hrs by […]PI staining based flow cytometric analysis (reference value: 41.29%); assay type: functional
MDA-MB-231 [6] = test: Induction of apoptosis in human MDA-MB-231 cells assessed as late apoptotic cells at 2.5 uM incubated for 24 hrs by Annexin V-FITC/PI staining based flow cytometric analysis (reference value: 0.161 %); assay type: functional
MDA-MB-231 [7] = test: Induction of apoptosis in human MDA-MB-231 cells assessed as late apoptotic cells at 10 uM incubated for 24 hrs by Annexin V-FITC/PI staining based flow cytometric analysis (reference value: 0.161 %); assay type: functional
[8] = Metabolic stability in rat liver microsomes assessed as parent compound remaining at 1 uM measured after 45 mins by LC-MS/MS analysis; assay type: ADME, Microsome; settings: read-out: Stability
[9] = Toxicity in BALB/c athymic nude mouse xenografted with human MDA-MB-231 cells assessed as effect on liver at 10 to 30 mg/kg, po administered once a day via gavage for 21 days by H and E staining based analysis; assay type: organism-based; settings: in vivo, 504 h, dose 10-30 mg/kg, time 21 day
[10] = Metabolic stability in mouse liver microsomes assessed as parent compound remaining at 1 uM measured after 15 mins by LC-MS/MS analysis; assay type: ADME, Microsome; settings: read-out: Stability
[11] = Toxicity in BALB/c athymic nude mouse xenografted with human MDA-MB-231 cells assessed as body weight loss at 10 to 30 mg/kg, po administered once a day via gavage for 21 days; assay type: organism-based; settings: in vivo, 504 h, dose 10-30 mg/kg, time 21 day
Cell membrane = test: Induction of mitochondrial membrane potential loss in human MDA-MB-231 cells assessed as increase in JC-1 monomer by measuring green fluorescence incubated for 12 hrs by confocal microscopic analysis; assay type: cell membranes; settings: dose 2.5-10 µM
MDA-MB-231 [12] = test: Induction of apoptosis in human MDA-MB-231 cells assessed as necrotic cells at 5 uM incubated for 24 hrs by Annexin V-FITC/PI staining based flow cytometric analysis (reference value: 0.063 %); assay type: functional
MDA-MB-231 [13] = test: Cell cycle arrest in human MDA-MB-231 cells assessed as accumulation of S phase cells at 5 uM incubated for 24 hrs by […]PI staining based flow cytometric analysis (reference value: 41.29%); assay type: functional
[14] = Toxicity in BALB/c athymic nude mouse xenografted with human MDA-MB-231 cells assessed as effect on lung at 10 to 30 mg/kg, po administered once a day via gavage for 21 days by H and E staining based analysis; assay type: organism-based; settings: in vivo, 504 h, dose 10-30 mg/kg, time 21 day
MDA-MB-231 [15] = test: Cell cycle arrest in human MDA-MB-231 cells assessed as accumulation of G2-M phase cells at 2.5 uM incubated for 24 hrs by […]PI staining based flow cytometric analysis (reference value: 16.88%); assay type: functional
MDA-MB-231 [16] = test: Induction of ROS production in human MDA-MB-231 cells incubated for 12 hrs by flow cytometry based confocal microscopic analysis; assay type: functional, cell-based; settings: dose 2.5-10 µM
[17] = Metabolic stability in human liver microsomes assessed as parent compound remaining at 1 uM measured after 30 mins by LC-MS/MS analysis; assay type: ADME, Microsome; settings: read-out: Stability
MDA-MB-231 [18] = test: Induction of apoptosis in human MDA-MB-231 cells assessed as inhibition of Bcl-2 protein expression incubated for 24 hrs by Western blot analysis; assay type: functional, cell-based; settings: dose 2.5-10 µM
MDA-MB-231 [19] = test: Induction of apoptosis in human MDA-MB-231 cells assessed as inhibition of total PARP protein expression incubated for 24 hrs by Western blot analysis; assay type: functional, cell-based; settings: dose 2.5-10 µM
MDA-MB-231 [20] = test: Induction of apoptosis in human MDA-MB-231 cells assessed as early apoptotic cells at 5 uM incubated for 24 hrs by Annexin V-FITC/PI staining based flow cytometric analysis (reference value: 0.131 %); assay type: functional
[21] = Toxicity in BALB/c athymic nude mouse xenografted with human MDA-MB-231 cells assessed as effect on kidney at 10 to 30 mg/kg, po administered once a day via gavage for 21 days by H and E staining based analysis; assay type: organism-based; settings: in vivo, 504 h, dose 10-30 mg/kg, time 21 day
MDA-MB-231 [22] = test: Effect on ERK protein expression in human MDA-MB-231 cells at 5 to 10 uM incubated for 24 hrs by Western blot analysis; assay type: functional, cell-based; settings: dose 5-10 µM
MDA-MB-231 [23] = test: Cell cycle arrest in human MDA-MB-231 cells assessed as accumulation of S phase cells at 10 uM incubated for 24 hrs by […]PI staining based flow cytometric analysis (reference value: 41.29%); assay type: functional
MDA-MB-231 [24] = test: Induction of apoptosis in human MDA-MB-231 cells assessed as viable cells at 10 uM incubated for 24 hrs by Annexin V-FITC/PI staining based flow cytometric analysis (reference value: 99.645%); assay type: functional; settings: read-out: Activity
MDA-MB-231 [25] = test: cells; settings: Homo sapiens, MDA-MB-231, 72 h
in vitro = settings: human, HUVEC cells
Description: Cytotoxicity against HUVEC cells assessed as inhibition of cell growth incubated for 72 hrs by MTT assay

[26] = Metabolic stability in rat liver microsomes assessed as parent compound remaining at 1 uM measured after 5 mins by LC-MS/MS analysis; assay type: ADME, Microsome; settings: read-out: Stability
MDA-MB-231 [27] = test: Antitumor activity against human MDA-MB-231 cells xenografted in female BALB/c athymic nude mouse assessed as tumor growth inhibition at 10 mg/kg, po administered once a day via gavage for 21 days relative to control; assay type: functional; settings: MDA-MB-231, 504 h, time 21 day, read-out: TGI
KYSE-150 cell line = test: cells; settings: Homo sapiens, KYSE-150, 72 h
Description: Antiproliferative activity against human KYSE-150 cells assessed as inhibition of cell growth incubated for 72 hrs by MTT assay

C=CC(=O)Nc1ccc(Cn2cnc3c(-c4cc(OC)cc(OC)c4)ncnc32)cc1
CLint scaled at 1 µM [1]: 42 mL/min/kg | viability at 5 µM (MDA-MB-231 [2]): 47.8% | Activity (MDA-MB-231 [3]): inactive | remaining at 0.5 h, 1 µM [4]: 18.6% | Activity (MDA-MB-231 [5]): 34.25% | Activity (MDA-MB-231 [6]): 6.16% | Activity (MDA-MB-231 [7]): 15.73% | remaining at 0.75 h, 1 µM [8]: 9.41% | Activity [9]: Non-Toxic | remaining at 0.25 h, 1 µM [10]: 27.2% | Activity [11]: Non-Toxic | Activity (Cell membrane): Dose-Dependent Effect | Activity (MDA-MB-231 [12]): 3.01% | Activity (MDA-MB-231 [13]): 22.82% | Activity [14]: Non-Toxic | Activity (MDA-MB-231 [15]): 14.94% | Activity (MDA-MB-231 [16]): Dose-Dependent Effect | remaining at 0.5 h, 1 µM [17]: 43.7% | Activity (MDA-MB-231 [18]): Dose-Dependent Effect | Activity (MDA-MB-231 [19]): Dose-Dependent Effect | Activity (MDA-MB-231 [20]): 34.92% | Activity [21]: Non-Toxic | Activity (MDA-MB-231 [22]): inactive | Activity (MDA-MB-231 [23]): 10.73% | viability at 10 µM (MDA-MB-231 [24]): 37.2% | IC50 (MDA-MB-231 [25]): 1.89 µM | IC50 at 72 h (in vitro): 82.1 µM | remaining at 5 min, 1 µM [26]: 73.4% | inhibition in vivo at 10 mg/kg (MDA-MB-231 [27]): 40.2% | IC50 (KYSE-150 cell line): 1.93 µM
